Assay results taken from patent US6653081B2, “Methods for monitoring antiretroviral therapy and guiding therapeutic decision in the treatment of HIV/AIDS” (ViroLogic, Inc., priority 2000, dated 2003).

Assays:
Format in all cases: cell-based, HIV
[1] = system: RTV-011073; experiment: Phenotypic susceptibility assay, RTV-011073; conditions: patient 011073; for decrease in susceptibility: V241S, K103N, I135T
Description: (§1) The resistance test vectors containing a functional luciferase gene cassette were constructed and host cells were transfected with the resistance test vector DNA. The resistant test vectors contained patient-derived reverse transcriptase and protease sequences that were either susceptible or resistant to the antiretroviral agents, such as nucleoside reverse transcriptase inhibitors, (NRTIs) non-nucleoside reverse transcriptase inhibitors […] protease inhibitors. The resistance test vector viral particles produced by transfecting the resistance test vector DNA into host cells, either in the presence or absence of PRIs, were used to infect target host cells grown either in the absence of NRTIs or NNRTIs, or in the presence of increasing concentrations of the drug. The amount of luciferase activity produced in infected target host cells in the presence of varying concentrations of drug was compared to the amount of luciferase produced in infected target host cells in the absence of drug. “Drug resistance” was measured as the amount of drug required to inhibit by 50% the luciferase activity detected in the absence of drug (inhibitory concentration 50%, IC50). The IC50 values were determined by plotting percent drug inhibition vs. log10 drug concentration. Stimulation of viral replication was measured as the percent increase in luciferase activity detected when infection occurs in the presence of drug as compared to in the absence of drug.
(§2) Host cells were seeded in 10-cm-diameter dishes and were transfected several days after plating with resistance test vector plasmid DNA and the envelope expression vector. Transfections were performed using a calcium-phosphate precipitation procedure. The cell culture media containing the DNA precipitate was replaced with fresh medium, from one to 24 hours, after transfection. Cell culture media containing resistance test vector viral particles was harvested one to four days after transfection and was passed through a […] filter before being used to infect target host cells, or being stored at −80° C. HIV capsid protein (p24) levels in the harvested cell culture media were determined by an EIA method as described by the manufacturer (SAIC; Frederick, Md.). Before infection, target cells (293 and 293/T) were plated in cell culture media. Control infections were performed using cell culture media from mock transfections (no DNA) or transfections containing the resistance test vector plasmid DNA without the envelope expression plasmid. One to three or more days after infection, the media was removed and cell lysis buffer (Promega) was added to each well. Cell lysates were assayed for luciferase activity (FIG. 3). The inhibitory effect of the drug was determined using the following equation:
(§3) % luciferase inhibition=1−(RLUluc[drug]÷RLUluc)×100
(§4) where RLUluc [drug] is the Relative Light Unit of luciferase activity in infected cells in the presence of drug, and RLUluc is the Relative Light Unit of luciferase activity in infected cells in the absence of drug. IC50values were obtained from the sigmoidal curves that were generated from the data by plotting the percent inhibition of luciferase activity vs. the log10 drug concentration. The percent luciferase stimulation is the negative of the % inhibition calculated using the formula above.
(§5) A resistance test vector was constructed as described in Example 1 from a virus sample obtained from patient 011073. The prior and current treatment regimens are unknown. Isolation of viral RNA and RT/PCR was used to generate a patient derived segment (PDS) that comprised viral sequences coding for all of PR and aa 1-313 of RT. The PDS was inserted into an indicator gene viral vector to generate a resistance test vector designated RTV-011073. RTV-011073 was then tested in a phenotypic assay to determine accurately and quantitatively the level of susceptibility to a panel of anti-retroviral drugs. […]

[2] = system: RTV-011073/241V; experiment: Phenotypic susceptibility assay, RTV-011073/241V; conditions: RTV-011073 with V241S reverted
Description: as §1, §2, §3, §4
A resistance test vector containing all of the mutations present in RTV-011073 except for the V241S and the T277K was constructed and tested using the phenotypic assay described earlier. The results were compared to those determined using the parent RTV-011073. We determined the pattern of phenotypic susceptibility to the NNRTIs, delavirdine, nevirapine and efavirenz, in the reverted vector RTV-011073/241V/277T. […] A resistance test vector containing all of the mutations present in RTV-011073 except for the V241S was constructed and tested using the phenotypic assay described earlier. The results were compared to those determined using the parent RTV-011073. […]

[3] = system: RTV-005738; experiment: Phenotypic susceptibility assay, RTV-005738; conditions: patient 005738; for decrease in susceptibility: V245E with multiple other mutations
Description: as §1, §2, §3, §4
as §5, with “patient 005738.” for “patient 011073.”, “of RT […].” for “of RT.”, “PDS were” for “PDS was”, “designated RTV-005738. RTV-005738” for “designated RTV-011073. RTV-011073”

[4] = system: RTV-006782; experiment: Phenotypic susceptibility assay, RTV-006782; conditions: patient 006782; for decrease in susceptibility: V245T, I135T, E138A
Description: as §1, §2, §3, §4
as §5, with “patient 006782.” for “patient 011073.”, “PDS were” for “PDS was”, “designated RTV-006782. RTV-006782” for “designated RTV-011073. RTV-011073”

[5] = system: RTV-1033, RTV-008973, RTV-757, RTV-008980 and RTV-1080; experiment: Phenotypic susceptibility assay, patient 1033 RTV pools; conditions: range over five RTV pools of one patient
Description: as §1, §2, §3, §4
Resistance test vectors were constructed as described in Example 1 from virus samples obtained from an individual patient at thirteen separate time points over a 2½-year period. This patient had been previously treated with two NRTIs (zidovudine and lamivudine) AZT, 3TC (NRTIS), and a PRI (indinavir) for a period of approximately 2 years at the time the first (97-309) and second (98-754) samples were obtained. The patient began taking a new anti-viral regimen including an NRTI (stavudine), an NNRTI (nevirapine), and two PRIs (nelfinavir and saquinavir) at the time the third sample (98-1032) was obtained. […]

Compound | drug-dependent stimulation of viral replication [1] | decrease in susceptibility [1] | drug-dependent stimulation of viral replication [2] | reductions in susceptibility compared to wild type control RTV [2] | drug-dependent stimulation of viral replication [3] | decrease in susceptibility [3] | drug-dependent stimulation of viral replication [4] | decrease in susceptibility [4] | drug-dependent stimulation of viral replication [5] | reductions in susceptibility [5]
Cc1ccnc2c1NC(=O)c1cccnc1N2C1CC1 [nevirapine] | ~70% | > 600 fold | no longer negative inhibition | 146 fold | ~20% | > 600 fold | ~60% | 8 fold | 40 to 250% | > 600 fold
CC(C)Nc1cccnc1N1CCN(C(=O)c2cc3cc(NS(C)(=O)=O)ccc3[nH]2)CC1 [delavirdine] | ~90% | > 250 fold | no longer negative inhibition | 59 fold | ~40% | 63 fold | ~70% | 18.5 fold | 20 to 180% | 3 to 18 fold
O=C1Nc2ccc(Cl)cc2[C@@](C#CC2CC2)(C(F)(F)F)O1 [efavirenz] | ~80% | > 450 fold | no longer negative inhibition | 54 fold | ~20% | 17 fold | ~25% | 5 fold | 30 to 170% | 16 to 300 fold
